Results reported in publication PMC3753695 (Neuron, 2013).

Target: T1, OBP49a (Drosophila melanogaster, UniProt A1Z947)
T1 sequence (A1Z947 23-212): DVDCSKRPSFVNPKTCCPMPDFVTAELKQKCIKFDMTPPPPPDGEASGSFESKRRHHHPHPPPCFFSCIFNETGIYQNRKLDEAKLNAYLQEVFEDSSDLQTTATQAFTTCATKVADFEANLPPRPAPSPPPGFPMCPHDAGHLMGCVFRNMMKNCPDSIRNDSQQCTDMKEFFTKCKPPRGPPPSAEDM
Experiment: surface plasmon resonance
Format: binding
Conditions: pH 7.4; 25 °C; HBS-P (10 mM HEPES, 150 mM NaCl, 0.005 % Surfactant P20); dose-dependent

Row | SMILES | surface plasmon resonance (BIAcore 3000, OBP49a on CM5 chip)
1 | COc1ccc2cc3[n+](cc2c1OC)CCc1cc2c(cc1-3)OCO2 [berberine] | berberine, denatonium and quinine bound to OBP49a in a dosedependent manner
2 | CC[N+](CC)(CC(=O)Nc1c(C)cccc1C)Cc1ccccc1 [denatonium] | berberine, denatonium and quinine bound to OBP49a in a dosedependent manner
3 | C=C[C@H]1CN2CC[C@H]1C[C@H]2[C@H](O)c1ccnc2ccc(OC)cc12 [quinine] | berberine, denatonium and quinine bound to OBP49a in a dosedependent manner
